Results from BindingDB's records for doi:10.7270/Q25T3HZB (Burnham Center For Chemical Genomics, 2010).

Molecular target: Kappa-type opioid receptor (Homo sapiens, UniProt P41145)
Assay: KOR antagonists by imaging, SAR follow-up, image-based (AID 2348)

Sequence of Kappa-type opioid receptor (P41145 whole entry): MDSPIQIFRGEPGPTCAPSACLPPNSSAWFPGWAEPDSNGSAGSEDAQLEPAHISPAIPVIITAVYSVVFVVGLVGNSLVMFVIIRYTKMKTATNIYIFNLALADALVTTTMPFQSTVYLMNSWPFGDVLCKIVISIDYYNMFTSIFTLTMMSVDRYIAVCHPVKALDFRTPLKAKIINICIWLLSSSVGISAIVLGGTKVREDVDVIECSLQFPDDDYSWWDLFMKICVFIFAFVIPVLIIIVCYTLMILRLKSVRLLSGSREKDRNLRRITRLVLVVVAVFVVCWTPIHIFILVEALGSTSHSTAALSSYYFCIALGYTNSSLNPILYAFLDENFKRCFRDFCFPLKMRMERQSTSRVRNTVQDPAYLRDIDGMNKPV

Row | Compound | IC50
1 | CCC(N=Nc1ccnc2cc(Cl)ccc12)c1ccc(O)cc1 (configuration not stated) [4-[1-[2-(7-chloroquinolin-4-yl)hydrazinyl]propylidene]cyclohexa-2,5-dien-1-one] | 3.62 µM
2 | Oc1ccc(CN=Nc2ccnc3cc(Cl)ccc23)cc1O [(4Z)-4-[[2-(7-chloroquinolin-4-yl)hydrazinyl]methylidene]-2-hydroxycyclohexa-2,5-dien-1-one] | 24.8 µM
